Data taken from patent US12180207B2 (ARRAY BIOPHARMA INC., priority 2018, dated 2024).
One block for each molecule: values may come before it.

What was measured:
[1] = target: FGFR3 (SEQ ID NO: 5, amino acids 449-759) (Homo sapiens (Human), UniProt P22607); assay: LC/MS FGFR3 kobs assay (covalent protein modification); type: binding; settings: 500 nM FGFR3, 3 μM compound
In short: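 Each time-point sample was quenched in 0.4% formic acid and analyzed by Q-TOF LC/MS. Deconvoluted signals gave percent modified and unmodified protein, normalized to the DMSO control, and the decay of unmodified protein yielded kobs.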

[2] = target: phosphorylated FGFR3 (SEQ ID NO: 5, amino acids 449 to 759) (Homo sapiens (Human), UniProt P22607); assay: FGFR enzyme binding assay (HTRF tracer displacement), FGFR3; settings: 5 nM phosphorylated FGFR3, average of multiple determinations if made
phosphorylated FGFR3 (SEQ ID NO: 5, amino acids 449 to 759), sequence (P22607 449-759): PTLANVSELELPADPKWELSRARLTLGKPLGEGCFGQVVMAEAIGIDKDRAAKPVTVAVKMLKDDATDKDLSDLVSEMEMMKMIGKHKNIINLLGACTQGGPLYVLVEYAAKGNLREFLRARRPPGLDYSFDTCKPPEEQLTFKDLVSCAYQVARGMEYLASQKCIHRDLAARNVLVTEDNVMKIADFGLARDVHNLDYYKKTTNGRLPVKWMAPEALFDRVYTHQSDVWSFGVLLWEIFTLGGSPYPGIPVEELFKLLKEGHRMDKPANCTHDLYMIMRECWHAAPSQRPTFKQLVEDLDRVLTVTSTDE
In short: (§1)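 Kinase and tracer were incubated with compound for 60 minutes at 22° C. Tracer displacement was then measured by HTRF, and results were expressed as POC with 1 μM control inhibitor defining full displacement.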

[3] = target: recombinant human FGFR2 cytoplasmic domain (amino acids 403-822) (Homo sapiens (Human), UniProt P21802); assay: FGFR2 enzyme activity assay (LanthaScreen TR-FRET); type: biochemical; settings: 15 μM ATP, 20 min incubation at 22° C., average of multiple determinations if made, read-out: FGFR2 Enz FRET IC50
recombinant human FGFR2 cytoplasmic domain (amino acids 403-822), sequence (P21802 402-821): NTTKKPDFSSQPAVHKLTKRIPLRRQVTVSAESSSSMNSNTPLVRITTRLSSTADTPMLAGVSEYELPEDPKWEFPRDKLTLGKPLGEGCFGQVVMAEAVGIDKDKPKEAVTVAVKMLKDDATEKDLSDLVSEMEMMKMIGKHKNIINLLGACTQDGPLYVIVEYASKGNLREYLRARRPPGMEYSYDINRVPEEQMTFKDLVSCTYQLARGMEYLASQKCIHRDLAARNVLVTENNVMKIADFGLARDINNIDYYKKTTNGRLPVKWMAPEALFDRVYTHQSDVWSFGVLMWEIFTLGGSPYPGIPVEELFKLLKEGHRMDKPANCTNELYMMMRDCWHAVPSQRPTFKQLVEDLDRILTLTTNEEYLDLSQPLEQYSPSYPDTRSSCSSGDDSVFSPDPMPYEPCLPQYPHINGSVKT
In short: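 Substrate phosphorylation was read by TR-FRET using Eu-PY20 antibody (60 min, 22 °C) after a 20 min, 22 °C reaction. The reaction used 15 μM ATP, 100 nM fluorescent poly-GT peptide and His-tagged FGFR2 403-822 ([…]) at pH 7.5 with 2% DMSO.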

[4] = target: recombinant human FGFR1 catalytic domain (amino acids 308-731) (Homo sapiens (Human), UniProt P11362); assay: FGFR1 enzyme activity assay (LanthaScreen TR-FRET); type: biochemical; settings: 20 min incubation at 22° C., average of multiple determinations if made, read-out: FGFR1 Enz FRET IC50
recombinant human FGFR1 catalytic domain (amino acids 308-731), sequence (P11362 other isoform, or with tags, fused parts or gaps): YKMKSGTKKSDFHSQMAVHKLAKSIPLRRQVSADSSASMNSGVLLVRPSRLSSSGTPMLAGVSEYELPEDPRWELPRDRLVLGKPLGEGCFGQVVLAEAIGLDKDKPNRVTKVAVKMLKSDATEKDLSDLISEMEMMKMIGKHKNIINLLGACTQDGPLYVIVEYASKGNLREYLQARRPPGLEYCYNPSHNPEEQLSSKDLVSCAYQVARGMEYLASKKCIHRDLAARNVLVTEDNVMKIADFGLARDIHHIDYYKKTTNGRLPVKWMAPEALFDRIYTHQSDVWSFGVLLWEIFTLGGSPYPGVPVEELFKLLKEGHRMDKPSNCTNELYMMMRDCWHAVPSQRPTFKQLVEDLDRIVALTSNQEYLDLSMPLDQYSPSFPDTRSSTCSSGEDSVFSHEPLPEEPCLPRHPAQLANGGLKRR
In short: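 His-tagged FGFR1 kinase domain with 100 nM Alexa Fluor 647-poly-GT peptide and ATP in pH 7.5 HEPES/MgCl2 buffer with 2% DMSO, 20 min at 22 °C. Quenched with EDTA plus 2 nM Eu-PY20 antibody and read after 60 min. IC50 comes from a 4-parameter fit of percent of control.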

[5] = target: dephosphorylated FGFR1 (SEQ ID NO: 1, amino acids 458 to 765) (Homo sapiens (Human), UniProt P11362); assay: FGFR enzyme binding assay (HTRF tracer displacement), FGFR1; settings: 5 nM dephosphorylated FGFR1, average of multiple determinations if made
dephosphorylated FGFR1 (SEQ ID NO: 1, amino acids 458 to 765), sequence (P11362 458-765): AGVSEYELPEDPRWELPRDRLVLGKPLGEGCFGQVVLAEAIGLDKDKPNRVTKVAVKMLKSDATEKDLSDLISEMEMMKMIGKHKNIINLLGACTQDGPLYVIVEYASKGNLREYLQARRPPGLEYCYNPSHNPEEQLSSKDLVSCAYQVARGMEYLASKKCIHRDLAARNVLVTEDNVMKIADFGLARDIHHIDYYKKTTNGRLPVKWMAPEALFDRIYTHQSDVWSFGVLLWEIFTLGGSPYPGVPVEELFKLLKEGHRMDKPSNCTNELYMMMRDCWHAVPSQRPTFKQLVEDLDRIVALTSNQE
In short: as §1

[6] = target: FGFR1 (SEQ ID NO: 1, amino acids 458-765) (Homo sapiens (Human), UniProt P11362); assay: LC/MS FGFR1 kobs assay (covalent protein modification); type: binding; settings: 500 nM FGFR1, 3 μM compound
FGFR1 (SEQ ID NO: 1, amino acids 458-765), sequence (P11362 458-765): as above
In short: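 Covalent labeling of FGFR1 kinase domain (aa 458-765) tracked over time by intact-protein LC/MS after formic acid quench. kobs derived by fitting DMSO-normalized percent unmodified FGFR1 to an exponential decay model.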

FGFR3 (SEQ ID NO: 5, amino acids 449-759), sequence (P22607 449-759): as the sequence (P22607 449-759) above

Structure (SMILES): C=CC(=O)N1CC(C(=O)N2CCC3(CC2)CN(c2ccc(-c4cc(OC)c5c(C#N)cnn5c4)cn2)C3)C1 [Example 102, 6-(6-(7-(1-acryloylazetidine-3-carbonyl)-2,7-diazaspiro[3.5]nonan-2-yl)pyridin-3-yl)-4-methoxypyrazolo[1,5-a]pyridine-3-carbonitrile]
FGFR3 Enz kobs [1]: 0.02912 min⁻¹
IC50 [2]: 6 nM
IC50 [3]: 11 nM
IC50 [4]: 38 nM
IC50 [5]: 44 nM
FGFR1 Enz kobs [6]: 0.00313 min⁻¹

Structure (SMILES): C=CC(=O)N1CC(C(=O)N2CCC3(C2)CN(c2ccc(-c4cc(OC)c5c(C#N)cnn5c4)cn2)C3)C1 [Example 103, 6-(6-(6-(1-acryloylazetidine-3-carbonyl)-2,6-diazaspiro[3.4]octan-2-yl)pyridin-3-yl)-4-methoxypyrazolo[1,5-a]pyridine-3-carbonitrile]
FGFR3 Enz kobs [1]: 0.02186 min⁻¹
IC50 [2]: 10 nM
IC50 [3]: 10 nM
IC50 [4]: 49 nM
IC50 [5]: 70 nM
FGFR1 Enz kobs [6]: 0.00388 min⁻¹

Structure (SMILES): C=CC(=O)N1CC(C(=O)N2CC3(C2)CN(c2ccc(-c4cc(OC)c5c(C#N)cnn5c4)cn2)C3)C1 [Example 104, 6-(6-(6-(1-acryloylazetidine-3-carbonyl)-2,6-diazaspiro[3.3]heptan-2-yl)pyridin-3-yl)-4-methoxypyrazolo[1,5-a]pyridine-3-carbonitrile]
FGFR3 Enz kobs [1]: 0.03006 min⁻¹
IC50 [2]: 12 nM
IC50 [3]: 20 nM
IC50 [4]: 63 nM
IC50 [5]: 72 nM
FGFR1 Enz kobs [6]: 0.00386 min⁻¹

Structure (SMILES): C=CC(=O)N1CC(C(=O)N2CC3CC(C2)N3c2ccc(-c3cc(OC)c4c(C#N)cnn4c3)cn2)C1 [Example 105, 6-(6-(3-(1-acryloylazetidine-3-carbonyl)-3,6-diazabicyclo[3.1.1]heptan-6-yl)pyridin-3-yl)-4-methoxypyrazolo[1,5-a]pyridine-3-carbonitrile]
FGFR3 Enz kobs [1]: 0.00147 min⁻¹
IC50 [2]: 97 nM
IC50 [3]: 42 nM
IC50 [4]: 193 nM
IC50 [5]: 435 nM
FGFR1 Enz kobs [6]: 0.00042 min⁻¹

Structure (SMILES): C=CC(=O)N1CC(C(=O)N2C[C@@H]3C[C@H]2CN3c2ccc(-c3cc(OC)c4c(C#N)cnn4c3)cn2)C1 [Example 106, 6-(6-((1S,4S)-5-(1-acryloylazetidine-3-carbonyl)-2,5-diazabicyclo[2.2.1]heptan-2-yl)pyridin-3-yl)-4-methoxypyrazolo[1,5-a]pyridine-3-carbonitrile]
FGFR3 Enz kobs [1]: 0.01259 min⁻¹
IC50 [2]: 9 nM
IC50 [3]: 11 nM
IC50 [4]: 61 nM
IC50 [5]: 62 nM
FGFR1 Enz kobs [6]: 0.00246 min⁻¹

Structure (SMILES): C=CC(=O)N1CC(C(=O)N2C[C@H]3C[C@@H]2CN3c2ccc(-c3cc(OC)c4c(C#N)cnn4c3)cn2)C1 [Example 107, 6-(6-((1R,4R)-5-(1-acryloylazetidine-3-carbonyl)-2,5-diazabicyclo[2.2.1]heptan-2-yl)pyridin-3-yl)-4-methoxypyrazolo[1,5-a]pyridine-3-carbonitrile]
FGFR3 Enz kobs [1]: 0.01688 min⁻¹
IC50 [2]: 16 nM
IC50 [3]: 9 nM
IC50 [4]: 68 nM
IC50 [5]: 108 nM
FGFR1 Enz kobs [6]: 0.00291 min⁻¹

Structure (SMILES): C=CC(=O)N1CC(CN2C[C@H]3C[C@@H]2CN3c2ccc(-c3cc(OC)c4c(C#N)cnn4c3)cn2)C1 [Example 108, 6-(6-((1R,4R)-5-((1-acryloylazetidin-3-yl)methyl)-2,5-diazabicyclo[2.2.1]heptan-2-yl)pyridin-3-yl)-4-methoxypyrazolo[1,5-a]pyridine-3-carbonitrile]
FGFR3 Enz kobs [1]: 0.01344 min⁻¹
IC50 [2]: 11 nM
IC50 [3]: 7 nM
IC50 [4]: 20 nM
IC50 [5]: 55 nM
FGFR1 Enz kobs [6]: 0.00291 min⁻¹

Structure (SMILES): C=CC(=O)N1CC(C(=O)N2CCN(c3ccc(-c4cc(OC)c5c(C#N)cnn5c4)cn3)CC2)C1 [Example 111, 6-(6-(4-(1-acryloylazetidine-3-carbonyl)piperazin-1-yl)pyridin-3-yl)-4-methoxypyrazolo[1,5-a]pyridine-3-carbonitrile]
FGFR3 Enz kobs [1]: 0.04009 min⁻¹
IC50 [2]: 11 nM
IC50 [3]: 4 nM
IC50 [4]: 12 nM
IC50 [5]: 144 nM
FGFR1 Enz kobs [6]: 0.00263 min⁻¹

Structure (SMILES): C=CC(=O)N1CC(F)(C(=O)N2CCN(c3ccc(-c4cc(OC)c5c(C#N)cnn5c4)cn3)CC2)C1 [Example 112, 6-(6-(4-(1-acryloyl-3-fluoroazetidine-3-carbonyl)piperazin-1-yl)pyridin-3-yl)-4-methoxypyrazolo[1,5-a]pyridine-3-carbonitrile]
FGFR3 Enz kobs [1]: 0.1108 min⁻¹
IC50 [2]: 4 nM
IC50 [3]: 9 nM
IC50 [4]: 21 nM
IC50 [5]: 82 nM
FGFR1 Enz kobs [6]: 0.00852 min⁻¹

Other lines, results leading:

FGFR3 Enz kobs [1]: 0.02175 min⁻¹
IC50 [2]: 45 nM
IC50 [3]: 42 nM
IC50 [4]: 107 nM
IC50 [5]: 388 nM
FGFR1 Enz kobs [6]: 0.00304 min⁻¹
Structure (SMILES): C=CC(=O)N1CC(C(=O)N2CCN(c3ncc(-c4cc(OC)c5c(C#N)cnn5c4)cc3C)CC2)C1 [Example 113, 6-(6-(4-(1-acryloylazetidine-3-carbonyl)piperazin-1-yl)-5-methylpyridin-3-yl)-4-methoxypyrazolo[1,5-a]pyridine-3-carbonitrile]

FGFR3 Enz kobs [1]: 0.03264 min⁻¹
IC50 [2]: 63 nM
IC50 [3]: 150 nM
IC50 [4]: 308 nM
IC50 [5]: 850 nM
FGFR1 Enz kobs [6]: 0.00369 min⁻¹
Structure (SMILES): C=CC(=O)N1CC(F)(C(=O)N2CCN(c3cc(C)c(-c4cc(OC)c5c(C#N)cnn5c4)cn3)CC2)C1 [Example 114, 6-(6-(4-(1-acryloyl-3-fluoroazetidine-3-carbonyl)piperazin-1-yl)-4-methylpyridin-3-yl)-4-methoxypyrazolo[1,5-a]pyridine-3-carbonitrile]

FGFR3 Enz kobs [1]: 0.01937 min⁻¹
IC50 [2]: 11 nM
IC50 [3]: 25 nM
IC50 [4]: 85 nM
IC50 [5]: 90 nM
FGFR1 Enz kobs [6]: 0.0016 min⁻¹
Structure (SMILES): C=CC(=O)N1CC(C(=O)N2CCN(c3ccc(-c4cc(OC)c5c(C#N)cnn5c4)nn3)CC2)C1 [Example 115, 6-(6-(4-(1-acryloylazetidine-3-carbonyl)piperazin-1-yl)pyridazin-3-yl)-4-methoxypyrazolo[1,5-a]pyridine-3-carbonitrile]

FGFR3 Enz kobs [1]: 0.02585 min⁻¹
IC50 [2]: 19 nM
IC50 [3]: 19 nM
IC50 [4]: 54 nM
IC50 [5]: 141 nM
FGFR1 Enz kobs [6]: 0.00277 min⁻¹
Structure (SMILES): C=CC(=O)N1CC(C(=O)N2CCN(c3cnc(-c4cc(OC)c5c(C#N)cnn5c4)cn3)CC2)C1 [Example 116, 6-(5-(4-(1-acryloylazetidine-3-carbonyl)piperazin-1-yl)pyrazin-2-yl)-4-methoxypyrazolo[1,5-a]pyridine-3-carbonitrile]

FGFR3 Enz kobs [1]: 0.03885 min⁻¹
IC50 [2]: 19 nM
IC50 [3]: 359 nM
IC50 [4]: 789 nM
IC50 [5]: 814 nM
FGFR1 Enz kobs [6]: 0.00318 min⁻¹
Structure (SMILES): C=CC(=O)N1CC(OC)(C(=O)N2CCC(n3ncc(-c4cc(OC)c5c(Cl)cnn5c4)c3C)CC2)C1 [Example 117, 1-(3-(4-(4-(3-chloro-4-methoxypyrazolo[1,5-a]pyridin-6-yl)-5-methyl-1H-pyrazol-1-yl)piperidine-1-carbonyl)-3-methoxyazetidin-1-yl)prop-2-en-1-one]
